Laboratory results reported in paper PMC11613437, “Prioritization of Eleven-Nineteen-Leukemia Inhibitors as Orally Available Drug Candidates for Acute Myeloid Leukemia” (Journal of Medicinal Chemistry, 2024).

Legend:
[1] = In vitro metabolic stability assay in HLM; type: in vitro ADME, human; conditions: for CLint scaled at 1 h: read-out: Liver Microsome CLint, pred
Description: At 0, 5, 15, 30, 45, and 60 min, 200 μL acetonitrile (with the internal standard diclofenac as 10 μg/mL) was added to terminate the reaction, the remaining compound was analyzed by HPLC-MS/MS.

[2] = Cell toxicity assay (CCK-8), MV4-11; type: cell-based; conditions: human, MV4-11 cells, 8 day treatment, n = 3; read-out: CC50 MV4-11 (Cellular IC50, 8-days incubation)
Description: (§1) Approximately 1 × 10^4 JURKAT, MOLM-13, MV4-11 and HEK293T cells in RPMI 1640 (no phenol red) (100 μL) were added to a 96-well plate and treated with DMSO or a compound at indicated concentrations for 72 h or 8 days. Cell viability was measured using the CCK-8 kit (Abcam, ab228554) according to the manufacturer’s instructions.

[3] = Cell toxicity assay (CCK-8), HEK293T; type: cell-based; conditions: human, HEK293T cells; 72 h (3-days) treatment, n = 3; read-out: CC50 HEK293T (Cellular IC50, 3-days incubation)
Description: as §1

ENL = target: T1, ENL (Homo sapiens, UniProt Q03111); experiment: Cellular thermal shift assay (CETSA); type: cell-based; conditions: MOLM-13 and MV4-11 cells, 10 μM, 3 and 6 h
T1 construct: CETSAs of ENL in MOLM-13 (top) and MV4-11 (bottom) cells; endogenous in cells; host or cells: MOLM-13 and MV4-11
T1 sequence (Q03111 1-559): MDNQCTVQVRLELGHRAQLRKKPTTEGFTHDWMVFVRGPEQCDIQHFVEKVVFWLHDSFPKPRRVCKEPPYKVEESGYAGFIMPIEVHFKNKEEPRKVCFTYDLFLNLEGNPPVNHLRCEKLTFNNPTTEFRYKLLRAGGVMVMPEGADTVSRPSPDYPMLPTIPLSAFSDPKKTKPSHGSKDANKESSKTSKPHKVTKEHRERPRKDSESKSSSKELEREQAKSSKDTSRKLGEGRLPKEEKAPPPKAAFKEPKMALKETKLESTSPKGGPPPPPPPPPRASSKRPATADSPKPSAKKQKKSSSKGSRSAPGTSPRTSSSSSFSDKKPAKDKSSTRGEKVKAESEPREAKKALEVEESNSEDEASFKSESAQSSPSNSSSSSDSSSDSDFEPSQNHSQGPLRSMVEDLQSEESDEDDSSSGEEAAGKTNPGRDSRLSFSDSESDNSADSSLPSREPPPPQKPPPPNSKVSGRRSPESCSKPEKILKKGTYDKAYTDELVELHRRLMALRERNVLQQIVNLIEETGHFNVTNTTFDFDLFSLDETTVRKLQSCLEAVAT
Description: MOLM-13 and MV4-11 were incubated with 10 μM of inhibitor 13 for 3 and 6 h, respectively. The cells were then collected and washed with PBS 3 times. The cell pellets were resuspended in PBS-containing protease inhibitors and aliquoted into PCR microtubes (approximately 3 million cells in 54 μL). Cells were heated at indicated temperatures for 3 min in a thermal cycler (Bio-Rad) and then incubated at room temperature for 2 min. A total of 6 μL of 10× cell lysis buffer (8% NP-40, 50% glycerol, and 10 mM dithiothreitol) was added to each sample before subjecting the sample to three freeze–thaw cycles by liquid nitrogen and 37 °C water bath incubations to lyse the cells. The cell lysates were centrifuged at 13,000 rpm at 4 °C for 10 min, and the supernatants were analyzed using SDS-PAGE and Western blotting.

[4] = test system: HOXA9, HOXA10, MEIS1, MYB and MYC; experiment: qRT-PCR of ENL target genes; type: cell-based; conditions: MOLM-13 and MV4-11 cells, 72 h, concentrations as low as 1.0 μM
Description: Total RNA was extracted using the RNeasy plus kit (Qiagen, 74034) and reverse-transcribed using an iScript cDNA synthesis kit (Bio-Rad, 1708890). Quantitative real-time PCR (qRT-PCR) analyses were performed as described previously using PowerUp SYBR Green PCR Master Mix (Thermo Fisher, A25742) and the Bio-Rad CFX96 real-time PCR detection system. Gene expressions were calculated following normalization to β2-microglobulin (B2M) levels using the comparative Ct (cycle threshold) method. The primer pairs are as follows. HOXA9: forward 5′-GTATAG-[…]-3′, reverse 5′-[…]-3′. MEIS1: forward 5′-[…]-3′, reverse 5′ […]-AGCAAG-3′. MYB: forward 5′-[…]-3′, reverse 5′-[…]-3′, MYC: forward 5′-[…]-AGGT-3′, reverse 5′-TTT-[…]-3′. B2M: forward 5′-[…]-3′ reverse 5′-[…]-3′.

MOLM-13-Luc cells = experiment: Antitumor analysis in MOLM-13-Luc xenografted NSG mice; type: in vivo
Text: Animal studies were approved by the Texas A&M’s Institutional Animal Care and Use Committees. The 5 week-old female NSG mice (NOD.Cg-PrkdcscidIl2rgtm1Wjl/SzJ, Jackson Laboratory #005557) were ordered and kept under pathogen-free conditions for 1 week with free access to food and water after arrival for acclimation. Tumor models in these mice were then built by engrafting 1 × 10^6 MOLM-13-Luc cells (BPS Bioscience, 78372) through tail vein injection. Tumors were allowed to grow for 6 days, and then applied for treatment by oral gavage daily (day 0 was the beginning of treatment). Dosage of 200 or 400 mg/kg (vehicle of 5% DMSO, 45% PEG400, 2.5% Tween 80, and 47.5% water) was applied. Tumor growth was evaluated by bioluminescent imaging (BLI) using an IVIS In Vivo Imaging System by intraperitoneal injection of 150 mg/kg D-Luciferin potassium salt (MedChemExpress, HY-12591B). Their body weights were recorded every 2–3 days. Surviving mice were counted every day and the mortality was calculated. No animal was excluded from any of the analyses. The investigators were not blinded to allocation during experiments and outcome assessment.

[5] = human, human liver microsomes, pH 7.4, HLM 0.5 mg/mL, NADPH 1 mM, mean ± SD, n = 3
[6] = human, human liver microsomes, pH 7.4, HLM 0.5 mg/mL, NADPH 1 mM, mean ± SD, n = 3, read-out: Liver Microsome t1/2

Q: Which results are given for `CC(C)C1CCN1Cc1ccc(CNC(=O)c2ccc3nncn3c2)cc1` (stereo not drawn) [inhibitor 13]?
A: CLint scaled at 1 h [1, 5]: 4.09 mL/min/kg; half-life at 1 h [1, 6]: 7.11 ± 0.663 h; parent compound remaining after 60 min incubation in HLM ([1]; in the presence of NADPH, 60 min): over 90%; IC50 at 8 days [2]: 6.72 µM; IC50 at 72 h [3]: > 64 µM; CETSA: thermal stability of ENL vs DMSO at elevated temperatures (ENL): higher abundance of ENL; expression of ENL target genes [4]: effectively suppress the expression of these genes; tumor reduction (MOLM-13-Luc cells; 200 mg/kg PO QD): no noticeable tumor reduction; increase in median survival (MOLM-13-Luc cells; 400 mg/kg PO QD vs control): 33.3%; tumor growth inhibition (TGI) (MOLM-13-Luc cells; 400 mg/kg PO QD, after 13 days of treatment, vs control): ~45%; median survival (MOLM-13-Luc cells; 400 mg/kg PO QD, control 15): 20 post-treatment days

Q: What does the source list for `CC(C)[C@H]1CCN1Cc1cc2cnc(NC(=O)c3ccc4nncn4c3)cc2[nH]1` [SR-C-107 (R), (R)-N-(2-((2-Isopropylazetidin-1-yl)methyl)-1H-pyrrolo[3,2-c]pyridin-6-yl)-[1,2,4]triazolo[4,3-a]pyridine-6-carboxamide]?
A: Liver Microsome t1/2 ([1]; HLM 0.5 mg/mL, NADPH 1 mM, mean ± SD, n = 3): 6.9717 ± 0.6597 h; CLint scaled at 1 h [1, 5]: 4.18 mL/min/kg; half-life [1, 6]: 6.97 h; IC50 at 8 days [2]: 0.81 ± 0.15 µM; IC50 at 72 h [3]: > 64 µM; CETSA: thermal stability of ENL vs DMSO at elevated temperatures (ENL): higher abundance of ENL; expression of ENL target genes [4]: effectively suppress the expression of these genes; tumor growth inhibition (TGI) (MOLM-13-Luc cells; 200 mg/kg PO QD, after 8 days of treatment): 49.5%; tumor growth inhibition (TGI) (MOLM-13-Luc cells; 200 mg/kg PO QD, day 12): 45%; median survival time (MOLM-13-Luc cells; 200 mg/kg PO QD, vehicle 10): 15 days post-treatment
